Target: T1, CB1 receptor (Homo sapiens, UniProt P21554)
T1 construct: expressed in transfected cells
Assay: [35S]-GTPγS binding assay on membranes from cells stably transfected with the CB1 gene, inhibition of agonist CP55940 (EC80)
Assay type: biochemical
Conditions: half maximal inhibition of GTPγS binding in presence of EC80 concentration of CP55940; 30° C., 45 min
Experimental: The compound of the present invention is active against the receptor product of the CB1 gene. The affinity of the compounds of the invention for central cannabinoid receptors is demonstrable in methods described in Devane et al, Molecular Pharmacology, 1988, 34,605 or those described in WO01/70700 or EP 656354. Alternatively the assay may be performed as follows.
10 μg of membranes prepared from cells stably transfected with the CB1 gene were suspended in 200 μl of 100 mM NaCl, 5 mM MgCl2, 1 mM EDTA, 50 mM HEPES (pH 7.4), 1 mM DTT, 0.1% BSA and 100 μM GDP. To this was added an EC80 concentration of agonist (CP55940), the required concentration of test compound and 0.1 μCi [^35S]-GTPγS. The reaction was allowed to proceed at 30° C. for 45 min. […] Filters were then covered with scintilant and counted for the amount of [^35S]-GTPγS retained by the filter.
Activity is measured in the absence of all ligands (minimum activity) or in the presence of an EC80 concentration of CP55940 (maximum activity). […] At various concentrations of novel ligand, activity is calculated as a percentage of the maximum activity and plotted. The data are fitted using the equation y=A+((B−A)/1+((C/x) ÙD)) and the IC50 value determined as the concentration required to give half maximal inhibition of GTPγS binding under the conditions used.

T1 sequence (P21554 whole entry): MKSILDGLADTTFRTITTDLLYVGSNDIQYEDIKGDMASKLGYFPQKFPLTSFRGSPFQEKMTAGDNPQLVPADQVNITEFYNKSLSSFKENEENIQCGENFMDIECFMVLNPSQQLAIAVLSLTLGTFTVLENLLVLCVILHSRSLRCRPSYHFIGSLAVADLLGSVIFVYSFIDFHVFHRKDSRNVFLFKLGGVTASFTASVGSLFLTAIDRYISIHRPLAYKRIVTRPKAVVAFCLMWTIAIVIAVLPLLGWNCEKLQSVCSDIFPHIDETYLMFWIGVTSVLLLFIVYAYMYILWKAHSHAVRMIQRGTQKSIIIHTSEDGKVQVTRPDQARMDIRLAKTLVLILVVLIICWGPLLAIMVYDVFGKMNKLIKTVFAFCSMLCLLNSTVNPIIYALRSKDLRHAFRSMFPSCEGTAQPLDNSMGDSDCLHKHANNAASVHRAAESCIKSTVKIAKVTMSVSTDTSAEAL

O=C(N[C@@H]1CCCC[C@@H]1O)c1nn(-c2ccc(Cl)cc2Cl)c(-c2ccc(OS(=O)(=O)CCC(F)(F)F)cc2)c1CO (single isomer, unassigned) [Example 1, (−)3,3,3-Trifluoro-propane-1-sulfonic acid 4-[2-(2,4-dichloro-phenyl)-5-(2-hydroxy-cyclohexylcarbamoyl)-4-hydroxymethyl-2H-pyrazol-3-yl]-phenyl ester]
IC50: 2.3 nM
